Results on 17 compounds are retold here after PubChem BioAssay AID212 (DTP/NCI, 2004).

For the assay, the system named is BDF1 mice, colon carcinoma 38 sc, T/C %. In words: NCI In Vivo Anticancer Drug Screen. Data for tumor model Colon Carcinoma 38 (subcutaneous) in B6D2F1 (BDF1) mice. The settings on record: endpoint: median tumor weight (est.), higher = larger tumour. In short, it runs like this: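 Compound antitumor activity was assessed in mice carrying transplantable tumors. Survival or tumor size was recorded, and each value is the treated-group measurement divided by that of the vehicle-treated control group.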

Setting [1] is: dose: 25.0 mg/kg/injection, schedule: Q07DX002 (ip), vehicle: saline with Tween-80.
The mark [2] stands for this setting: dose: 50.0 mg/kg/injection, schedule: Q07DX002 (ip), vehicle: saline with Tween-80.
Where [3] appears, read: dose: 200.0 mg/kg/injection, schedule: Q07DX002 (ip), vehicle: saline with Tween-80.
[4] abbreviates: dose: 400.0 mg/kg/injection, schedule: Q07DX002 (ip), vehicle: saline with Tween-80.
[5] abbreviates: dose: 12.5 mg/kg/injection, schedule: Q07DX002 (ip), vehicle: saline.
The mark [6] stands for this setting: dose: 25.0 mg/kg/injection, schedule: Q07DX002 (ip), vehicle: saline.
The mark [7] stands for this setting: dose: 50.0 mg/kg/injection, schedule: Q07DX002 (ip), vehicle: saline.
Where [8] appears, read: dose: 100.0 mg/kg/injection, schedule: Q07DX002 (ip), vehicle: saline.
Where [9] appears, read: dose: 200.0 mg/kg/injection, schedule: Q07DX002 (ip), vehicle: saline.
Setting [10] is: dose: 12.5 mg/kg/injection, schedule: Q07DX002 (ip), vehicle: saline with Tween-80.
Setting [11] is: dose: 100.0 mg/kg/injection, schedule: Q07DX002 (ip), vehicle: saline with Tween-80.

Several values for one entry are separate records, joined by “and”; a condition that tells them apart may be missing. Equal values may be shown once. Records with an inconclusive call do not appear.

Turning to `CC[C@]1(O)C[C@H]2CN(CCc3c([nH]c4ccccc34)[C@@](C(=O)OC)(c3cc4c(cc3OC)N(C)[C@H]3[C@@](O)(C(=O)OC)[C@H](OC(C)=O)[C@]5(CC)C=CCN6CC[C@]43[C@@H]65)C2)C1`, the T/C (dose: 4.0 mg/kg/injection, schedule: Q07DX002 (ip), vehicle: saline) is 20 % of control and 22 % of control.

Regarding `CNc1cccnc1/C=N/NC(N)=S`, the T/C under setting [1] was 119 % of control; the T/C under setting [2] was 95 % of control; the T/C under setting [3] was 45 % of control and 66 % of control; the T/C under setting [4] is 32 % of control and 33 % of control.

For the compound `CN(C)c1ncnc2c1ncn2C1OC(CO)C(N)C1O` (configuration not stated), the T/C runs as follows: under setting [5], 110 % of control; under setting [6], 85 % of control; under setting [7], 105 % of control; under setting [8], 106 % of control; under setting [9], 63 % of control.

On to `CC(C)CC(=O)NC(C(=O)NC(C(=O)NC(CC(C)C)C(O)CC(=O)NC(C)C(=O)NC(CC(C)C)C(O)CC(=O)O)C(C)C)C(C)C` (configuration not stated), for which the T/C is, setting by setting: (dose: 25.0 mg/kg/injection, schedule: Q07DX002 (ip), vehicle: Klucel (hydroxypropylcellulose) (HPC)) 79 % of control; (dose: 50.0 mg/kg/injection, schedule: Q07DX002 (ip), vehicle: Klucel (hydroxypropylcellulose) (HPC)) 109 % of control; (dose: 100.0 mg/kg/injection, schedule: Q07DX002 (ip), vehicle: Klucel (hydroxypropylcellulose) (HPC)) 95 % of control; (dose: 200.0 mg/kg/injection, schedule: Q07DX002 (ip), vehicle: Klucel (hydroxypropylcellulose) (HPC)) 120 % of control.

With `CCCCCn1c(C)cc(/C=C\c2ccc3cc(C)ccc3[n+]2C)c1C`, the T/C by setting is: (dose: 0.62 mg/kg/injection, schedule: Q07DX002 (ip), vehicle: Klucel (hydroxypropylcellulose) (HPC)) 85 % of control and 86 % of control; (dose: 1.25 mg/kg/injection, schedule: Q07DX002 (ip), vehicle: Klucel (hydroxypropylcellulose) (HPC)) 104 % of control; (dose: 37.5 micrograms/kg/injection, schedule: Q07DX002 (ip), vehicle: Klucel (hydroxypropylcellulose) (HPC)) 84 % of control; (dose: 75.0 micrograms/kg/injection, schedule: Q07DX002 (ip), vehicle: Klucel (hydroxypropylcellulose) (HPC)) 186 % of control; (dose: 150.0 micrograms/kg/injection, schedule: Q07DX002 (ip), vehicle: Klucel (hydroxypropylcellulose) (HPC)) 162 % of control; (dose: 600.0 micrograms/kg/injection, schedule: Q07DX002 (ip), vehicle: Klucel (hydroxypropylcellulose) (HPC)) 188 % of control.

Regarding `COc1ccc(C[C@H](N)C(=O)NC2C(CO)OC(n3cnc4c(N(C)C)ncnc43)C2O)cc1` (some centres not stated), the T/C under setting [5] was 81 % of control; the T/C (dose: 24.0 mg/kg/injection, schedule: Q07DX002 (ip), vehicle: saline) was 79 % of control and 91 % of control; the T/C under setting [6] is 86 % of control; the T/C (dose: 48.0 mg/kg/injection, schedule: Q07DX002 (ip), vehicle: saline) was 80 % of control and 82 % of control; the T/C under setting [7] is 92 % of control and 106 % of control; the T/C (dose: 96.0 mg/kg/injection, schedule: Q07DX002 (ip), vehicle: saline) was 91 % of control and 108 % of control. Also, the T/C reads like this: under setting [8], 89 % of control and 94 % of control; (dose: 192.0 mg/kg/injection, schedule: Q07DX002 (ip), vehicle: saline) 72 % of control and 93 % of control; under setting [9], 55 % of control and 64 % of control; (dose: 384.0 mg/kg/injection, schedule: Q07DX002 (ip), vehicle: saline) 64 % of control and 84 % of control; (dose: 400.0 mg/kg/injection, schedule: Q07DX002 (ip), vehicle: saline) 21 % of control.

With `CC[C@@]1(O)C[C@H](OC2CC(N(C)C)C(OC3CC(O)C(OC4CC(O)C(O)C(C)O4)C(C)O3)C(C)O2)c2c(cc3c(c2O)C(=O)c2c(O)ccc(O)c2C3=O)[C@H]1C(=O)OC` (some centres not stated), the T/C by setting is: (dose: 1.5 mg/kg/injection, schedule: Q07DX003 (ip), vehicle: Klucel (hydroxypropylcellulose) (HPC)) 95 % of control; (dose: 3.0 mg/kg/injection, schedule: Q07DX003 (ip), vehicle: Klucel (hydroxypropylcellulose) (HPC)) 72 % of control.

For the compound `Nc1nc(=O)n(C2OC(CO)C(O)C2O)cc1F` (configuration not stated), the T/C reads like this: under setting [5], 124 % of control; under setting [6], 211 % of control; under setting [7], 118 % of control and 235 % of control; under setting [9], 60 % of control and 83 % of control.

On to `COc1ccc2c(NCCCCCCNc3c4ccccc4nc4cc(OC)ccc34)c3ccccc3nc2c1`, for which the T/C is, setting by setting: (dose: 0.31 mg/kg/injection, schedule: Q07DX002 (ip), vehicle: lactic acid) 54 % of control; (dose: 0.32 mg/kg/injection, schedule: Q07DX002 (ip), vehicle: lactic acid) 72 % of control.

As to `CC(C)=CCNc1ncnc2c1ncn2C1OC(CO)C(O)C1O` (configuration not stated), the T/C by setting is: under setting [10], 61 % of control; under setting [5], 102 % of control; under setting [6], 89 % of control; under setting [2], 96 % of control; under setting [11], 44 % of control; under setting [8], 97 % of control. Under setting [3], the T/C is 75 % of control.

In the case of `CN1CCN(c2ccc3nc(-c4ccc5nc(-c6ccc(O)cc6)[nH]c5c4)[nH]c3c2)CC1`, the T/C was 119 % of control under setting [6], 116 % of control under setting [7], 70 % of control under setting [8] and 97 % of control under setting [9].

With `CC(=O)Oc1c(C)[nH]ccc1=O`, the T/C runs as follows: (dose: 6.25 mg/kg/injection, schedule: Q07DX002 (ip), vehicle: saline) 107 % of control; under setting [9], 107 % of control.

For `C1CC[N-]CC1.C1CC[N-]CC1.C1CC[N-]CC1.[Cl][Rh]([Cl])[Cl]`, the T/C is 105 % of control under setting [6]; 120 % of control and 124 % of control under setting [8]; 92 % of control under setting [9].

For `c1ccc2sc(SSN3CC4CCC(CC4)C3)nc2c1`, the T/C reads like this: under setting [10], 110 % of control and 85 % of control; under setting [1], 82 % of control and 93 % of control; under setting [11], 63 % of control and 64 % of control; under setting [3], 113 % of control and 115 % of control.

As for `Clc1ccc(C(c2ccc(Cl)cc2)C(Cl)(Cl)Cl)cc1`, the T/C runs as follows: (dose: 4.0 mg/kg/injection, schedule: Q07DX002 (ip), vehicle: Klucel (hydroxypropylcellulose) (HPC)) 123 % of control; (dose: 8.0 mg/kg/injection, schedule: Q07DX002 (ip), vehicle: Klucel (hydroxypropylcellulose) (HPC)) 94 % of control; (dose: 16.0 mg/kg/injection, schedule: Q07DX002 (ip), vehicle: Klucel (hydroxypropylcellulose) (HPC)) 112 % of control; (dose: 32.0 mg/kg/injection, schedule: Q07DX002 (ip), vehicle: Klucel (hydroxypropylcellulose) (HPC)) 122 % of control.

Consider `O=C(O)C1Cc2nc[nH]c2CN1CO` (configuration not stated), for which the T/C by setting is: under setting [1], 93 % of control; under setting [2], 117 % of control and 98 % of control; under setting [11], 113 % of control and 99 % of control; under setting [3], 86 % of control; under setting [4], 93 % of control; (dose: 800.0 mg/kg/injection, schedule: Q07DX002 (ip), vehicle: saline with Tween-80) 89 % of control.

As for `CCN(Cc1ccc(Cl)c(Cl)c1)c1ccc2nc(N)nc(N)c2c1C`, the T/C is 165 % of control (dose: 6.25 mg/kg/injection, schedule: Q07DX002 (ip), vehicle: distilled water + Tween-80); 206 % of control (dose: 12.5 mg/kg/injection, schedule: Q07DX002 (ip), vehicle: distilled water + Tween-80); 46 % of control (dose: 100.0 mg/kg/injection, schedule: Q07DX002 (ip), vehicle: distilled water + Tween-80).
